The nature of test [1]: Displacement of FAM-NT8-13 from rat NTSR1 stably expressed in HEK293F cells incubated for 1 hr under dark condition by mCherry fluorophore based competition binding assay. Type of test: cell-based.
The target of test [2] is Neurotensin receptor type 1 (Homo sapiens, UniProt P30989). As to the kind of experiment: Inhibition of NTSR1 (unknown origin).

Square brackets hold non-standard residues; d marks the D form. Peptide text beside a SMILES is read from it. NMeR = CN[C@@H](CCCNC(=N)N)C(=O)O; Tle = CC(C)(C)[C@H](N)C(=O)O

Sequence of Neurotensin receptor type 1 (P30989 whole entry): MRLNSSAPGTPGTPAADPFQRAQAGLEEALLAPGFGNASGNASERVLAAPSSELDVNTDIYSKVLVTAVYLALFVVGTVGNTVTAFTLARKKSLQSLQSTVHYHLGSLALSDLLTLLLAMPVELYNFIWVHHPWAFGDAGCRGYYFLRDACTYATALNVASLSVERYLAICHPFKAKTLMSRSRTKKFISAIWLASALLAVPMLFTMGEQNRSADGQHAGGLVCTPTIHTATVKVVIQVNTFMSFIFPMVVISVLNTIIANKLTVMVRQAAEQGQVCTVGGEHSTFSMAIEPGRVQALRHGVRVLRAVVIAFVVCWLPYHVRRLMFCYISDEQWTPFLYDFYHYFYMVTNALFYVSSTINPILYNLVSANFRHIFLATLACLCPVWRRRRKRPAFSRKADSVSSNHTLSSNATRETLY

For orientation: Ki means a dissociation constant, usually derived from enzyme kinetics or from competition with a known ligand. A high value points to a looser hold on the target. A word on the pKi: it is the negative decadic logarithm of the Ki, by convention in mol/L. Higher therefore signals a low Ki. Regarding `CC(C)C[C@@H]1NC(=O)[C@H](C(C)(C)C)NC(=O)[C@H](Cc2ccc(O)cc2)NC(=O)[C@@H]2CCCN2C(=O)[C@H](CCCCN)NC(=O)[C@H](CCCNC(=N)N)NC1=O` (cyclo(KPY[Tle]LR)), in test [1], the Ki was 1480 nM and the pKi is less than 4. This compound gave a Ki in test [2] of 1070 nM.

Consider `CN[C@@H](CCCNC(=N)N)C(=O)N[C@@H](CCCCN)C(=O)N1CCC[C@H]1C(=O)N[C@@H](Cc1c[nH]c2ccccc12)C(=O)N[C@H](C(=O)N[C@@H](CC(C)C)C(=O)O)C(C)(C)C` (H-[NMeR]KPW[Tle]L-OH), for which the Ki in test [2] is 5.37 nM.

In test [1], `CC(C)C[C@H](NC(=O)[C@@H](NC(=O)[C@H](Cc1ccc(O)cc1)NC(=O)[C@@H]1CCCN1C(=O)[C@H](CCCCN)NC(=O)[C@@H](N)CCCNC(=N)N)C(C)(C)C)C(=O)O` (H-RKPY[Tle]L-OH) registered an inhibitory constant (Ki) of 47.9 nM and a pKi of 7.32.

Regarding `CC(C)C[C@H](NC(=O)[C@@H](N)C(C)(C)C)C(=O)N[C@@H](CCCNC(=N)N)C(=O)N[C@@H](CCCCN)C(=O)N1CCC[C@H]1C(=O)N[C@@H](Cc1ccc(O)cc1)C(=O)O` (H-[Tle]LRKPY-OH), in test [1], the pKi is reported as less than 4.
